From patent US6291470A, “Indole derivatives process for producing the same and medicinal uses of the same” (Toray Industries, Inc., priority 1992, dated 2001) come the findings set out here.

Read-outs that look alike come from different tables or passages of the source.

The assay addresses T1, δ-opioid receptor (Mus musculus, UniProt P32300).
T1 construct: from tissue; host or cells: vas deferens of male ddy mice
Put plainly: δ-opioid antagonist activity against DPDPE in mouse vas deferens (MVD). As to conditions: for Ratio of IC50 Values: DPDPE IC50 with/without 100 nM test compound; for Ratio of IC50 Values / Kb: 20 min; for Kb: against DPDPE, test compound 100 nM. As for the experimental part:
Using mouse vas deferens (MVD), the antagonist activity against DPDPE which is a δ-opioid agonist was checked.
In this experiment, ddy male mice were used. In a Magnus' tube which is filled with Krebes-Henseleit solution (NaCl […]; KCl 4.7 mM; CaCl2 2.5 mM; KH2 PO4 1.1 mM; NaHCO3 25 mM; glucose 11 mM) kept at 37° C., and into which an atmosphere consisting of 5% carbon dioxide and 95% oxygen was flown, vas deferens taken from the animals was suspended. Electric stimulation was applied through ring-shaped platinum electrodes mounted on the upper and lower portions of the tube at a frequency of 0.1 Hz and 5.0 mS duration. The contraction of the tissue was recorded on polygraph using isometric transducer.
Then 100 nM of the test compound was added. Twenty minutes later, DPDPE was begun to be added cumulatively. The ratio of IC50 values in the presence and absence of the test compound, Ke value (the molar concentration of the test compound necessary for translating the dose-effect curve to the curve of twice dose) and pA2 value were determined. The pA2 value was determined by the method of Shild et al (Shild, H. O., Br. J. Pharmac. Chamotehr., 4, 277 (1949)). That is, the logarithm of the test compound (log[test compound]) was plotted along the abscissa and the logarithm of the value obtained by subtracting 1 from the ratio of IC50 values was plotted in the presence and absence of the test compound [log(dose ratio-1)] along the ordinate. The pA2 value was determined from the value on the abscissa when the value on the ordinate of the obtained line is 0.

T1 sequence (P32300 whole entry): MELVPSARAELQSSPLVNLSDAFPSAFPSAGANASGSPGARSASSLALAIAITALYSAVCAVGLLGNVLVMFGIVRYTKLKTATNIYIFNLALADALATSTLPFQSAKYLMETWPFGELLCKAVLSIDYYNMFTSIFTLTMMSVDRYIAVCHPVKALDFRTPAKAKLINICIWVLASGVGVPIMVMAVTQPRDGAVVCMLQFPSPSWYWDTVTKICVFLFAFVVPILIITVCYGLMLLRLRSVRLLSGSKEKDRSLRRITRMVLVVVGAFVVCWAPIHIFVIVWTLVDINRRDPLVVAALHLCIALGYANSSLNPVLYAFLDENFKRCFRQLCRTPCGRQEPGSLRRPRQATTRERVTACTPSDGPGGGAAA

On to `C=CCN1CC[C@]23c4c5ccc(O)c4O[C@H]2c2[nH]c4cc(C(=O)OC)ccc4c2C[C@@]3(O)[C@H]1C5` [Compound 115, 17-allyl-6,7-didehydro-4,5α-epoxy-3,14β-dihydroxy-6'-methoxycarbonyl-6,7-2',3'-indolomorphinan], for which the “Ratio of IC50 Values” came to 75.4. Where the note is “read-out: Ke”, the Kb was 1.34 nM.
In the same order, the values of `CCOC(=O)c1ccc2[nH]c3c(c2c1)C[C@@]1(O)[C@H]2Cc4ccc(O)c5c4[C@@]1(CCN2CC1CC1)[C@H]3O5` [Compound 3, 17-cyclopropylmethyl-6,7-didehydro-4,5α-epoxy-3,14β-dihydroxy-5'-ethoxycarbonyl-6,7-2',3'-indolomorphinan] are 5.34 and 23 nM.
Taken in the same sequence, the figures for `C=CCN1CC[C@]23c4c5ccc(O)c4O[C@H]2c2[nH]c4cccc(C(=O)OC)c4c2C[C@@]3(O)[C@H]1C5` [Compound 114, 17-allyl-6,7-didehydro-4,5α-epoxy-3,14β-dihydroxy-4'-methoxycarbonyl-6,7-2',3'-indolomorphinan] were 20.7 and 5.08 nM.
`OCCc1cccc2[nH]c3c(c12)C[C@@]1(O)[C@H]2Cc4ccc(O)c5c4[C@@]1(CCN2CC1CC1)[C@H]3O5` [Compound 40, 17-cyclopropylmethyl-6,7-didehydro-4,5α-epoxy-3, 14β-dihydroxy-4'-(2-hydroxyethyl)-6,7-2',3'-indolomorphinan]: the “Ratio of IC50 Values” was 4.60. Where the note is “read-out: Ke”, the Kb stood at 27.8 nM.
Taken in the same sequence, the figures for `NS(=O)(=O)c1ccc2[nH]c3c(c2c1)C[C@@]1(O)[C@H]2Cc4ccc(O)c5c4[C@@]1(CCN2CC1CC1)[C@H]3O5` [Compound 5, 17-cyclopropylmethyl-6,7-didehydro-4,5α-epoxy-3,14β-dihydroxy-5'-sulfamoyl-6,7-2',3'-indolomorphinan] were 4.36 and 29.8 nM.
In the same order, the values of `Oc1ccc2c3c1O[C@H]1c4[nH]c5ccc(I)cc5c4C[C@@]4(O)[C@@H](C2)N(CC2CC2)CC[C@]314` [Compound 1, 17-cyclopropylmethyl-6,7-didehydro-4,5α-epoxy-3,14β-dihydroxy-5'-iodo-6,7-2',3'-indolomorphinan] are 8.88 and 12.7 nM.
Consider `COC(=O)c1cccc2[nH]c3c(c12)C[C@@]1(O)[C@H]2Cc4ccc(O)c5c4[C@@]1(CCN2CC1CC1)[C@H]3O5` [Compound 76, 17-cyclopropylmethyl-6,7-didehydro-4,5α-epoxy-3,14β-dihydroxy-4'-methoxycarbonyl-6,7-2',3'-indolomorphinan], for which the “Ratio of IC50 Values” is recorded as 6.82. Moreover, for the setting “read-out: Ke”, the Kb amounted to 17.2 nM.
Turning to `Oc1ccc2c3c1O[C@H]1c4[nH]c5c(C(F)(F)F)cccc5c4C[C@@]4(O)[C@@H](C2)N(CC2CC2)CC[C@]314` [Compound 118, 17-cyclopropylmethyl-6,7-didehydro-4,5α-epoxy-3,14β-dihydroxy-7'-trifluoromethyl-6,7-2',3'-indolomorphinan], the “Ratio of IC50 Values” was found to be 52.9. Also, the Kb (read-out: Ke) stood at 1.93 nM.
As to `COC(=O)c1ccc2c3c([nH]c2c1)[C@@H]1Oc2c(O)ccc4c2[C@@]12CCN(CC1CC1)[C@H](C4)[C@]2(O)C3` [Compound 77, 17-cyclopropylmethyl-6,7-didehydro-4,5α-epoxy-3,14β-dihydroxy-6'-methoxycarbonyl-6,7-2',3'-indolomorphinan], the “δ-antagonist activity relative to NTI (times that of NTI)” value was 1.3-1.6 times and the “Ratio of IC50 Values” is 742. Also, under “read-out: Ke”, the Kb is 0.13 nM.
For `OCCc1ccc2c3c([nH]c2c1)[C@@H]1Oc2c(O)ccc4c2[C@@]12CCN(CC1CC1)[C@H](C4)[C@]2(O)C3` [Compound 41, 17-cyclopropylmethyl-6,7-didehydro-4,5α-epoxy-3,14β-dihydroxy-6'-(2-hydroxyethyl)-6,7-2',3'-indolomorphinan], the “Ratio of IC50 Values” came to 22.1. The Kb (read-out: Ke) came to 4.74 nM.
In the same order, the values of `CS(=O)(=O)c1ccc2c3c([nH]c2c1)[C@@H]1Oc2c(O)ccc4c2[C@@]12CCN(CC1CC1)[C@H](C4)[C@]2(O)C3` [Compound 188, 17-cyclopropylmethyl-6,7-didehydro-4,5α-epoxy-3,14β-dihydroxy-6'-methylsulfonyl-6,7-2',3'-indolomorphinan] are 56.0 and 1.82 nM.
`CCOC(=O)Cc1ccc2c3c([nH]c2c1)[C@@H]1Oc2c(O)ccc4c2[C@@]12CCN(CC1CC1)[C@H](C4)[C@]2(O)C3` [Compound 49, 17-cyclopropylmethyl-6,7-didehydro-4,5α-epoxy-3,14β-dihydroxy-6'-ethoxycarbonylmethyl-6,7-2',3'-indolomorphinan]: the “Ratio of IC50 Values” worked out at 27.8. In addition, under “read-out: Ke”, the Kb came to 3.73 nM.
In the same order, the values of `Oc1ccc2c3c1O[C@H]1c4[nH]c5c(ccc6cnccc65)c4C[C@@]4(O)[C@@H](C2)N(CC2CC2)CC[C@]314` [Compound 156, 17-cyclopropylmethyl-3,14β-dihydroxy-4,5α-epoxy-6,7-didehydromorphinano[6,7-b]pyrido[4,3-g]indole] are 26.6 and 3.91 nM.
Taken in the same sequence, the figures for `N#Cc1ccc2[nH]c3c(c2c1)C[C@@]1(O)[C@H]2Cc4ccc(O)c5c4[C@@]1(CCN2CC1CC1)[C@H]3O5` [Compound 8, 17-cyclopropylmethyl-6,7-didehydro-4,5α-epoxy-3,14β-dihydroxy-5'-cyano-6,7-2',3'-indolomorphinan] were 3.60 and 38.5 nM.
`CS(=O)(=O)c1ccc2[nH]c3c(c2c1)C[C@@]1(O)[C@H]2Cc4ccc(O)c5c4[C@@]1(CCN2CC1CC1)[C@H]3O5` [Compound 6, 17-cyclopropylmethyl-6,7-didehydro-4,5α-epoxy-3,14β-dihydroxy-5'-methylsulfonyl-6,7-2',3'-indolomorphinan]: the “Ratio of IC50 Values” is reported as 12.6. In addition, where the note is “read-out: Ke”, the Kb was 8.62 nM.
In the case of `CN(C)S(=O)(=O)c1ccc2c3c([nH]c2c1)[C@@H]1Oc2c(O)ccc4c2[C@@]12CCN(CC1CC1)[C@H](C4)[C@]2(O)C3` [Compound 51, 17-cyclopropylmethyl-6,7-didehydro-4,5α-epoxy-3,14β-dihydroxy-6'-(N,N-dimethylsulfamoyl)-6,7-2',3'-indolomorphinan], the “Ratio of IC50 Values” stood at 33.2. Further, the Kb (read-out: Ke) was determined as 3.11 nM. Further, the Kb (read-out: pA2 (converted)) is 2.69 nM.
For the molecule `CS(=O)(=O)c1cccc2c3c([nH]c12)[C@@H]1Oc2c(O)ccc4c2[C@@]12CCN(CC1CC1)[C@H](C4)[C@]2(O)C3` [Compound 190, 17-cyclopropylmethyl-6,7-didehydro-4,5α-epoxy-3,14β-dihydroxy-7'-methylsulfonyl-6,7-2',3'-indolomorphinan], the “δ-antagonist activity relative to NTI (times that of NTI)” value is recorded as 1.3-1.6 times and the “Ratio of IC50 Values” amounted to 698. In addition, the Kb (read-out: Ke) was 0.14 nM.
Consider `Oc1ccc2c3c1O[C@H]1c4[nH]c5ccc(OC(F)(F)F)cc5c4C[C@@]4(O)[C@@H](C2)N(CC2CC2)CC[C@]314` [Compound 4, 17-cyclopropylmethyl-6,7-didehydro-4,5α-epoxy-3,14β-dihydroxy-5'-trifluoromethoxy-6,7-2',3'-indolomorphinan], for which the “Ratio of IC50 Values” came to 7.95. Further, the Kb (read-out: Ke) amounted to 14.4 nM.
In the same order, the values of `O=[N+]([O-])c1ccc2c3c([nH]c2c1)[C@@H]1Oc2c(O)ccc4c2[C@@]12CCN(CC1CC1)[C@H](C4)[C@]2(O)C3` [Compound 79, 17-cyclopropylmethyl-6,7-didehydro-4,5α-epoxy-3,14β-dihydroxy-6'-nitro-6,7-2',3'-indolomorphinan] are 60.6 and 1.68 nM.
Taken in the same sequence, the figures for `O=C(NCC1CC1)c1cccc2[nH]c3c(c12)C[C@@]1(O)[C@H]2Cc4ccc(O)c5c4[C@@]1(CCN2CC1CC1)[C@H]3O5` [Compound 46, 17-cyclopropylmethyl-6,7-didehydro-4,5α-epoxy-3,14β-dihydroxy-4'-(N-cyclopropylmethylcarbamoyl)-6,7-2',3'-indolomorphinan] were 1.39 and 256 nM.
Regarding `CCOC(=O)Cc1cccc2[nH]c3c(c12)C[C@@]1(O)[C@H]2Cc4ccc(O)c5c4[C@@]1(CCN2CC1CC1)[C@H]3O5` [Compound 48, 17-cyclopropylmethyl-6,7-didehydro-4,5α-epoxy-3,14β-dihydroxy-4'-ethoxycarbonylmethyl-6,7-2',3'-indolomorphinan], the “Ratio of IC50 Values” is 5.88. The Kb (read-out: Ke) was determined as 20.5 nM.
